What all share (assay): relative viability (nuclei count vs DMSO), 5 days (fraction); higher = more cells survive
Compound in the assay “Cediranib + Tozasertib”: COc1cc2c(Oc3ccc4[nH]c(C)cc4c3F)ncnc2cc1OCCCN1CCCC1 [Cediranib] + Cc1cc(Nc2cc(N3CCN(C)CC3)nc(Sc3ccc(NC(=O)C4CC4)cc3)n2)n[nH]1 [Tozasertib] (partner 0.1 µM)
In short, it runs like this:
(§1)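 Nuclei were stained with Hoechst during a one-step fixation (final 0.05% Triton X-100, 1% formaldehyde, 1 ug/ml Hoechst) carried out 5 days after dosing, then counted on 4× images. The cells, lung cancer lines in 1536-well plates, had been dosed by pin tool the day after seeding with one drug alone or a fixed anchor-drug dose plus five library-drug doses (not always all listed) in √10 steps. Relative viability is the nuclei count in treated wells divided by that in vehicle wells, and each value is the median of duplicate plates.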

Compound in the assay “Cediranib + Dasatinib”: COc1cc2c(Oc3ccc4[nH]c(C)cc4c3F)ncnc2cc1OCCCN1CCCC1 [Cediranib] + Cc1nc(Nc2ncc(C(=O)Nc3c(C)cccc3Cl)s2)cc(N2CCN(CCO)CC2)n1 [Dasatinib] (partner 0.075 µM)
An outline of the steps:
as §1

Compound in the assay “Decitabine + Trametinib”: Nc1ncn([C@H]2C[C@H](O)[C@@H](CO)O2)c(=O)n1 [Decitabine] + CC(=O)Nc1cccc(-n2c(=O)n(C3CC3)c(=O)c3c(Nc4ccc(I)cc4F)n(C)c(=O)c(C)c32)c1 [Trametinib] (partner 0.02 µM)
In short, it runs like this: as §1

Compound in the assay “Cediranib + Trametinib”: COc1cc2c(Oc3ccc4[nH]c(C)cc4c3F)ncnc2cc1OCCCN1CCCC1 [Cediranib] + CC(=O)Nc1cccc(-n2c(=O)n(C3CC3)c(=O)c3c(Nc4ccc(I)cc4F)n(C)c(=O)c(C)c32)c1 [Trametinib] (partner 0.02 µM)
An outline of the steps: as §1

The values that follow come from the supplement of paper PMC10307832.

For NCI-H322M, the relative viability with Cediranib + Tozasertib (first compound 0.04 µM) was 0.484; with Cediranib + Tozasertib (first compound 0.1265 µM) it was 0.564; with Cediranib + Tozasertib (first compound 0.4 µM), 0.473; with Cediranib + Tozasertib (first compound 1.265 µM), 0.424; in the assay with Cediranib + Tozasertib (first compound 4 µM), 0.486; with Cediranib + Dasatinib (first compound 0.04 µM), 0.239. For the same cell line, the relative viability in the assay with Cediranib + Dasatinib (first compound 0.1265 µM) was 0.277; with Cediranib + Dasatinib (first compound 0.4 µM), 0.247; with Cediranib + Dasatinib (first compound 1.265 µM) it was 0.258; with Cediranib + Dasatinib (first compound 4 µM), 0.255; with Decitabine + Trametinib (first compound 0.04 µM), 0.508; with Decitabine + Trametinib (first compound 0.1265 µM), 0.453. Further, the relative viability with Decitabine + Trametinib (first compound 0.4 µM) came out at 0.6; in the assay with Decitabine + Trametinib (first compound 1.265 µM), 0.457; with Decitabine + Trametinib (first compound 4 µM), 0.486; with Cediranib + Trametinib (first compound 0.04 µM), 0.475; with Cediranib + Trametinib (first compound 0.1265 µM), 0.489; with Cediranib + Trametinib (first compound 0.4 µM) it was 0.526. Also, the values for the relative viability with Cediranib + Trametinib (first compound 1.265 µM) and in the assay with Cediranib + Trametinib (first compound 4 µM) were 0.528 and 0.568, respectively.
For the cell line NCI-H358, the relative viability with Cediranib + Tozasertib (first compound 0.04 µM) turned out to be 0.123; with Cediranib + Tozasertib (first compound 0.1265 µM), 0.0968; with Cediranib + Tozasertib (first compound 0.4 µM), 0.0956; in the assay with Cediranib + Tozasertib (first compound 1.265 µM) it was 0.105; with Cediranib + Tozasertib (first compound 4 µM) it was 0.101; with Cediranib + Dasatinib (first compound 0.04 µM), 0.174. For the same cell line, the relative viability was 0.239 in the assay with Cediranib + Dasatinib (first compound 0.1265 µM); 0.194 with Cediranib + Dasatinib (first compound 0.4 µM); 0.137 with Cediranib + Dasatinib (first compound 1.265 µM); 0.173 with Cediranib + Dasatinib (first compound 4 µM); 0.132 with Decitabine + Trametinib (first compound 0.04 µM); 0.124 with Decitabine + Trametinib (first compound 0.1265 µM). The relative viability amounted to 0.137 with Decitabine + Trametinib (first compound 0.4 µM); 0.121 with Decitabine + Trametinib (first compound 1.265 µM); 0.126 with Decitabine + Trametinib (first compound 4 µM); 0.148 in the assay with Cediranib + Trametinib (first compound 0.04 µM); 0.156 with Cediranib + Trametinib (first compound 0.1265 µM); 0.123 with Cediranib + Trametinib (first compound 0.4 µM). The relative viability in the assay with Cediranib + Trametinib (first compound 1.265 µM) came out at 0.106; with Cediranib + Trametinib (first compound 4 µM) it was 0.131.
Regarding NCI-H441, the relative viability was 0.787 with Cediranib + Tozasertib (first compound 0.04 µM); 0.545 with Cediranib + Tozasertib (first compound 0.4 µM); 0.55 in the assay with Cediranib + Tozasertib (first compound 1.265 µM); 0.677 with Cediranib + Tozasertib (first compound 4 µM); 0.466 with Cediranib + Dasatinib (first compound 0.04 µM); 0.678 with Cediranib + Dasatinib (first compound 0.4 µM). Moreover, the relative viability in the assay with Cediranib + Dasatinib (first compound 1.265 µM) came to 0.559; with Cediranib + Dasatinib (first compound 4 µM) it was 0.772; with Decitabine + Trametinib (first compound 0.04 µM), 0.317; with Decitabine + Trametinib (first compound 0.1265 µM), 0.281; with Decitabine + Trametinib (first compound 0.4 µM), 0.255; in the assay with Decitabine + Trametinib (first compound 1.265 µM) it was 0.183. Further, the relative viability was 0.206 with Decitabine + Trametinib (first compound 4 µM); 0.631 with Cediranib + Trametinib (first compound 0.04 µM); 0.504 with Cediranib + Trametinib (first compound 0.1265 µM); 0.408 with Cediranib + Trametinib (first compound 0.4 µM); 0.483 with Cediranib + Trametinib (first compound 1.265 µM); 0.399 with Cediranib + Trametinib (first compound 4 µM).
With NCI-H460, the relative viability with Cediranib + Tozasertib (first compound 0.04 µM) amounted to 0.494; with Cediranib + Tozasertib (first compound 0.1265 µM), 0.391; with Cediranib + Tozasertib (first compound 0.4 µM), 0.429; in the assay with Cediranib + Tozasertib (first compound 1.265 µM) it was 0.603; in the assay with Cediranib + Tozasertib (first compound 4 µM), 0.355; with Cediranib + Dasatinib (first compound 0.04 µM), 0.51. The relative viability with Cediranib + Dasatinib (first compound 0.1265 µM) worked out at 0.634; with Cediranib + Dasatinib (first compound 0.4 µM), 0.466; in the assay with Cediranib + Dasatinib (first compound 1.265 µM), 0.459; with Cediranib + Dasatinib (first compound 4 µM) it was 0.562; with Decitabine + Trametinib (first compound 0.04 µM), 0.173; with Decitabine + Trametinib (first compound 0.1265 µM), 0.229. Further, the relative viability was 0.214 with Decitabine + Trametinib (first compound 0.4 µM); 0.109 in the assay with Decitabine + Trametinib (first compound 1.265 µM); 0.13 in the assay with Decitabine + Trametinib (first compound 4 µM); 0.111 with Cediranib + Trametinib (first compound 0.04 µM); 0.156 with Cediranib + Trametinib (first compound 0.1265 µM); 0.138 in the assay with Cediranib + Trametinib (first compound 0.4 µM). Moreover, the relative viability with Cediranib + Trametinib (first compound 1.265 µM) is 0.153; in the assay with Cediranib + Trametinib (first compound 4 µM), 0.214.
